The subject of the test is A549 lung carcinoma cells. Description: Oxidative stress induction in A549 cells, GSH/GSSG measured by LC-MS/MS. The test is classed as cell-based, human. As to conditions: 100 μmol/L H2O2 for 15 min. The protocol:
Cell culture: A549 human lung carcinoma cells were obtained from CLS Cell Lines Service, Eppelheim, Germany, and were cultured in RPMI medium supplemented with 10% fetal bovine serum and 2 mmol/L glutamine in a 5% CO2, 37° C. incubator. For H2O2 treatment, cells were seeded in 12-well plates (300000 cells/well) and after a day in culture treated with 500 μl of control (Ca2+, Mg2+-PBS) or 100 μmol/L H2O2 in Ca2+, Mg2+-PBS for 15 min followed by two PBS washing steps and the NEM (2.5 mmol/L) incubation step. The detailed stabilisation workflow is illustrated in FIG. 1 and example 2.
Method overview: The method was tested and fully optimized for three different sample types: cells, blood and tissue. In clinical measurements available sample amount is often a limiting factor. The high sensitivity of the presented method enables analysis of scarce samples as minimal sample amounts are required. Typically, 5 μL of blood, 3-5 mg of tissue sample or 300.000 cells were used as starting material. […] All three analytes GSH-NEM, GSH-d5-NEM and ^13C, ^15N-GSH-d5-NEM (IS) were then simultaneously measured by LC-MS/MS using an MRM-based approach (FIG. 1, step 4), see also example 4.
Chromatography was carried out on a Dionex UltiMate 3000 system equipped with a Zorbax SB-C18 column (50 mm×4.6 mm, 1.8 μm, Agilent, USA). […] The sum of areas under both peaks was used for integration and quantification. […]

Structures are written as SMILES.

As for `OO` [H2O2], the GSH/GSSG ratio entry (GSSG measured as GSH-d5-NEM) is “drastically reduced”. Moreover, the “intracellular GSH values” (vs control PBS) is “depleted”.

The values above are taken from patent US12216125B2, “Method and kit for isotope-labelling of a glutathione-containing biological sample for mass spectrometry” (TECHNISCHE UNIVERSITÄT WIEN, priority 2018, dated 2025).
